Each structure is given as a SMILES string.

Experimental findings from patent publication US20070093524A1, “5-Lipoxygenase modulators” (Wyeth, priority 2005, published 2007) are described below.

For one series, the system named is 5-LO mRNA. In words: Downregulation of 5-LO gene expression (5-LO mRNA by real-time RT-PCR) in acetylated-LDL-stimulated macrophage cell lines. To be noted: macrophage cell line (THP-1 or J774, not specified). In kind it is cell-based, human and mouse. On the procedure:
A panel of LXR or PPAR modulator compounds was tested to determine whether they could downregulate 5-LO gene expression. The compounds were individually tested to determine whether they could downregulate 5-LO gene expression in human and mouse macrophage cell lines.
Preparation of Acetylated LDL: LDL was dialyzed with 500 mL phosphate buffered saline (PBS) three times. 2.5 mL of dialyzed LDL was mixed with 2.5 mL of saturated sodium acetate with continuous stirring in an ice-water bath. Acetic anhydride was added in 7 times 7.5 μL over a period of 1 hour with continuous stirring. Then, the mixture was stirred for an additional 1 hour. The solution was dialyzed against 500 mL PBS containing 0.3 mM EDTA three times. The protein concentration is determined using Bio-Rad DC protein assay kit.
Cell Culture and Compound Treatment: Human THP-1 cells were maintained in RPMI 1640 medium containing 10% Fetal Bovine Serum (FBS), 25 mM Hepes buffer, […] Genamicin, 1 mM Sodium pyruvate, and 50 μM β-mercaptoethanol. THP-1 cells were differentiated with 75 ng/mL phorbal 12,13-dibutyrate (PDBu) three days prior to assay to induce differentiation of the cells into adherent macrophages. Cells were seeded in 12 well plates in 1 mL of complete media. Each well contained 400,000 cells. The cells were stimulated with RPMI 1640 medium (1% FBS) containing 100 μg/mL acetylated-LDL in presence of phorbol ester for 48 hours, including several wells without acetylated-LDL treatment as a control. The medium was then changed to RPMI 1640 medium without FBS, plus the test compounds with phorbol ester for 48 hours. Control cells were not incubated with test compounds. The cells were incubated at 37° C. in a humidified CO2 incubator. The cells were then ready for RNA extraction.
Murine J774 cells were maintained in DMEM (high glucose) containing 10% FBS, 100 units/mL penicillin, and 100 μg/mL streptomycin. Six hours prior to assay, J774 cells were seeded into 96-well plates in 150 μL complete media. Each well contains 75,000 cells. The cells were stimulated with DMEM-high glucose (1% FBS) containing 100 μg/mL acetylated-LDL for 24 to 48 hours, including several wells without acetylated-LDL treatment as a control. The media was then changed to DMEM-high glucose (without FBS) plus the test compounds for 24 to 48 hours. Compounds were dosed in DMSO vehicle and control cells were treated with vehicle alone. The cells were incubated at 37° C. in a humidified CO2 incubator. The cells were then ready for RNA isolation.
RNA analysis: Total RNA was isolated from the THP-1 cells by using a QIAGEN RNeasy Mini Kit. Real-time quantitative RT-PCR assays were performed using an Applied Biosystems 7900 sequence detector. Each amplification mixture (50 μL) contained 50-100 ng of total RNA, 200 nM forward primer, 200 nM reverse primer, and 200 nM dual-labeled fluorogenic probe. The RT-PCR reagent is from QIAGEN (QuantiTect Probe RT-PCR kit). The RT-PCR thermocycling parameters were 48° C. for 30 minutes, 95° C. for 10 minutes, and 40 cycles at 95° C. for 15 seconds and 55° C. for 1 minute. The samples, no-RT controls, and serially diluted RNA standards were analyzed in parallel. The 5-LO target gene was analyzed and normalized for human glyceraldehyde-3-phosphate dehydrogenase (GAPDH) expression using probe and primers from predeveloped assays for GAPDH (Applied Biosystems). Quantitative analysis was performed using the threshold procedure, and relative amounts were calculated from the standard curve.
Total RNA from the J774 cells was isolated by using the ABI 6100 RNA isolation system for 96-well plates (the THP-1 cells can also be cultured and tested in 96-well plates). Real-time quantitative RT-PCR assays were performed using an Applied Biosystems 7900 sequence detector. Each amplification mixture (50 μL) contained 50-100 ng of total RNA, 200 nM forward primer, 200 nM reverse primer, and 250 nM dual-labeled fluorogenic probe.

The term inhibition denotes the relative decrease from the control value, in per cent. Usually melting point stands for the temperature of the solid-liquid transition. `O=C(O)Cc1ccc(COc2cccc(-c3c(-c4ccccc4)cnc4c(C(F)(F)F)cccc34)c2)cc1` [Compound I-3, {4-[3-(3-Phenyl-8-trifluoromethyl-quinolin-4-yl)-phenoxymethyl]-phenyl}-acetic acid] showed a melting point of 122 °C. For the same compound, at 0.1 µM the inhibition in the series with 5-LO mRNA (0.1 uM compound) was 88%. In the series on 5-LO mRNA (1.0 uM compound), 1 µM produced 89% inhibition.
